{"source": "patent US6831069B2", "about": "“Pyrrolo[2,3-d]pyrimidine nucleoside analogs” (priority 1999, dated 2004)", "key": {"PHA activated PBMC": {"system": "PHA activated PBMC", "experiment": "ELISA spot assay, number of cytokine producing cells", "type": "cell-based, human", "settings": "10 μM"}, "CD3+ T cells": {"system": "CD3+ T cells", "experiment": "Viability by propidium iodide exclusion", "type": "cell-based, human", "experimental": "For determination of cytokine protein levels, T-cells (1×10^6 cells in a volume of 1 ml) were activated by the addition of 10 ng PMA plus 0.5 μg ionomycin (both from Calbiochem, La Jolla, Calif.) and incubated in 24 well plates in the presence of 0 to 20 μM nucleoside for up to 48 h at 37° C. and 5% CO2 in a humidified incubator. Following activation, supernatants were analysed for cell-derived cytokine production. For proliferation and viability studies, the protocol as above was modified to a 96 well-plate format using 0.2×10^6 cells in a volume of 0.2 ml and activation with 2 ng PMA and 0.1 μg ionomycin. In separate experiments, 5×10^6 T cells in 2 ml were activated with 20 ng PMA plus 1 μg ionomycin. Here total RNA was isolated from T cells following 6-24 h incubation and analyzed by RT-PCR to determine mRNA levels of various cytokines and inflammatory mediators. […]\nT cell proliferative responses were assessed by measuring [3H]-thymidine (1 μCi, ICN, Irvine, Calif.) incorporation for the last 16 h of each assay. Cells were harvested onto filters and DNA synthesis was measured following scintillation counting on a Wallac Betaplate counter (Perkin-Elmer/Wallac, Gaithersburg, Md.). Viability was assessed by propidium iodide (5 μg/ml) exclusion in untreated and nucleoside-treated human T cells stained with FITC-CD3 (Becton Dickinson, San Jose, Calif.). […]"}, "BALB/c mice": {"system": "BALB/c mice", "experiment": "Contact hypersensitivity (CHS) to DNFB", "type": "in vivo, mouse", "settings": "for mean decrease in ear thickness (inhibition of CHS): 24 h post-challenge", "experimental": "Reactivity to the contact allergen, DNFB, was determined, in BALB/c mice, as previously described (Ishii, N., K. Takahashi, H. Nakajima, S. Tanaka, P. W. Askenase. 1994. DNFB contact sensitivity (CS) in BALB/c and C3H/He mice. J. Invest. Dermatol. 102:321). Briefly, mice were sensitized by application of 20 μl of 0.3% DNFB in acetone: olive oil, 4:1 onto the shaved abdomens of naive mice. For optimal elicitation of CHS, the mice were challenged on both sides of each ear with 20 μl of 0.12% DNFB, five days after sensitization. Unsensitized mice were also challenged and used as controls in each experiment. After 24 h, ear thickness measurements were taken and response to DNFB was assessed by subtracting […]. Where indicated, 7-β-D-ribofuranosyl-4-oxopyrrolo-[2,3-d]pyrimidine-5-carboxamidine, at a dose of 6.2 μg in 50 μl PBS (0.3 mg/kg) or 12.4 μg in 100 μl PBS (0.6 mg/kg), was administered by i.p. injection at the time of challenge with DNFB. These doses of 7-β-D-ribofuranosyl-4-oxopyrrolo[2,3-d]pyrimidine-5-carboxamidine gave maximal effect in preliminary optimization studies. Following final ear thickness measurements, mice were sacrificed by cervical dislocation and axillary/lateral axillary lymph nodes were removed. Following isolation of total cellular RNA from isolated lymph node cells, RT-PCR and Southern Blot analyses were performed to monitor for mouse IFNg, IL-2, and IL-10 mRNA levels.\nTotal cellular RNA was extracted using Trizol reagent (Life Technologies, Gaithersburg, Md.). The cDNA synthesis reaction was performed using oligo (dT)12-18 primer and Superscript II (Life Technologies) reverse transcriptase. The PCR reaction (GeneAmp PCR kit, Perkin-Elmer, Foster City, Calif.) consisted of a 50 μl mixture containing cDNA, dNTPs (each at 200 μM), 0.5 μM of each primer pair and 1.25 unit of Taq polymerase. The primers for human IL-2, IL-10, IL-4, IL-6, IL-1b, IFNg, c-myc, IL-2R, CD40L (Stratagene, La Jolla, Calif.), iNOS (Clontech, Palo Alto, Calif.) and pHE7 ribosomal gene were used. Typical amplification conditions included a 5-minute denaturation at 94° C. and a 5 minute annealing at 60° C. followed by 35 cycles of 1.5 min at 72° C., 45 sec at 94° C. and 45 sec at 60° C., with a final extension time of 10 min at 72° C. The primers for mouse IL-2, IFNγ, and β-actin were obtained from Stratagene and mouse IL-10 from Clontech. Amplification conditions for the Stratagene mouse cytokine primers were a 5 min denaturation at 94° C. and a 5 min annealing at 60° C. followed by 35 cycles of 1.5 min at 72° C., 45 sec at 94° C. and 45 sec at 60° C., with a final extension time of 10 min at 72° C. For IL-10, the PCR conditions were a 5-minute denaturation at 94° C. followed by 35 cycles of 45 sec at 94° C., 45 sec at 60° C. and 2 min at 72° C., with a final extension time of 7 min at 72° C.\nFor each gene product, the optimum cDNA dilution was determined experimentally and was defined as the cDNA dilution that would achieve a detectable concentration that was well below saturating conditions. […] Equivalent loading was assessed following hybridization with a probe generated from pHE7 sense primer. Washed blots were then analyzed using a Phosphorimager (Biorad, Richmond, Calif.). Relative changes in cytokine or other test mRNA were presented as densitometric readings and normalized for any variations in input RNA by determining the densitometric ratio of mRNA of interest relative to mRNA of the housekeeping gene, pHE7."}, "[1]": {"system": "BALB/c and C57BL/6 lymph node CD4+ T cells", "experiment": "Generation of murine Th1 cells, IL-4 and IFNγ ELISA after restimulation", "type": "cell-based, mouse", "design": "murine IFNγ secretion upon restimulation: dose or concentration left out as unconfirmed", "settings": "Th1 conditions (anti-CD3, IL-2, IFNγ, IL-12), both mouse strains"}, "[2]": {"settings": "lymph node cells, DNFB-primed mice"}}}
{"smiles": "N=C(N)c1cn([C@@H]2O[C@H](CO)[C@@H](O)[C@H]2O)c2nc[nH]c(=O)c12", "note": "[ICN 10776, 7-β-D-ribofuranosyl-4-oxopyrrolo-[2,3-d]pyrimidine-5-carboxamidine]", "values": [{"measurement": "number of IL-2-producing cells", "setting": "PHA activated PBMC; 24 h", "value": "dramatic fall"}, {"measurement": "number of IFNγ-producing cells", "setting": "PHA activated PBMC; 48 h", "value": "dramatic fall"}, {"measurement": "number of IL-4 producing cells", "setting": "PHA activated PBMC; 48 h", "value": "substantial increase"}, {"measurement": "number of IL-5 producing cells", "setting": "PHA activated PBMC; 48 h", "value": "substantial increase"}, {"measurement": "viability of resting CD3+ T cells", "setting": "CD3+ T cells; 20 μM, 48 h incubation, decrease from 95%", "value": 85, "unit": "%"}, {"measurement": "viability of PMA-ION activated CD3+ T cells versus no nucleoside", "setting": "CD3+ T cells; 0.2 to 20 μM, 8 h, 24 h, 48 h", "value": "no sign difference"}, {"measurement": "mean decrease in ear thickness (inhibition of CHS)", "setting": "BALB/c mice; 0.3 mg/kg i.p. at time of challenge", "value": 42, "unit": "%"}, {"measurement": "mean decrease in ear thickness (inhibition of CHS)", "setting": "BALB/c mice; 0.6 mg/kg i.p. at time of challenge", "value": 68, "unit": "%"}, {"measurement": "IFNγ mRNA levels", "setting": "BALB/c mice; [2]", "value": "substantially reduced"}, {"measurement": "IL-2 mRNA levels", "setting": "BALB/c mice; [2]", "value": "substantially reduced"}, {"measurement": "murine IL-10 mRNA expression", "setting": "BALB/c mice; [2]", "value": "greatly enhanced"}, {"measurement": "murine IL-4 secretion upon restimulation", "setting": "[1]; co-incubation with 10 mM ICN 10776", "value": "elevated levels of IL-4"}, {"measurement": "murine IFNγ secretion upon restimulation", "setting": "[1]; co-incubation with ICN 10776", "value": "low levels of IFNγ"}]}
